The target in the assay is T1, eeAChE (Electrophorus electricus acetylcholinesterase) (Electrophorus electricus, UniProt O42275).
T1 construct: gene ache; construct details not given
Description: Ellman assay (ATCh/DTNB, […] nm), Lineweaver-Burk. In kind it is biochemical. For orientation: Ellman's reagent forms a yellow product with free thiols.

Structures are written as SMILES. Structures can show the parent of a compound that is named as a salt.

These results are taken from publication doi:10.1101/144204v1, “On the use of the experimentally determined enzyme inhibition constant as a measure of absolute binding affinity” (biorxiv, 2017).

T1 sequence (O42275 24-633): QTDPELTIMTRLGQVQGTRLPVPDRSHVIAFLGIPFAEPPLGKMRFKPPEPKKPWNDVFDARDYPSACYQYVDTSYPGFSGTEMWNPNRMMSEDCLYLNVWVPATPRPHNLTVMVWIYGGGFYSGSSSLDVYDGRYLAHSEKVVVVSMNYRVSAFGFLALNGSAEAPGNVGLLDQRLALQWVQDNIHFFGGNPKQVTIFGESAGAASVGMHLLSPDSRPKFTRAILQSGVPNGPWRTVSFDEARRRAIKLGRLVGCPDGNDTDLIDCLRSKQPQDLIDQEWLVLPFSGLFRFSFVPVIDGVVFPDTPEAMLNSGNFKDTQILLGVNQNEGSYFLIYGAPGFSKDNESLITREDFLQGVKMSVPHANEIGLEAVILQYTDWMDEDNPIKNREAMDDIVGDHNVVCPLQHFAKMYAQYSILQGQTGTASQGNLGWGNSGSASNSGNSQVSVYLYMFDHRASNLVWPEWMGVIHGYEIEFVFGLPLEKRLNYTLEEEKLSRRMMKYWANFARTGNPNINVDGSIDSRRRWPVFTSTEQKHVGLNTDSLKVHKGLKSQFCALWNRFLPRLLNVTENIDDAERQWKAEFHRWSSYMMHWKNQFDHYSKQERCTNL

As usually defined, the Ki is a measure of affinity in units of concentration, obtained from inhibition or displacement. The compound `c1ccc2c(NCCCCCCCNc3c4c(nc5ccccc35)CCCC4)c3c(nc2c1)CCCC3` [bis(7)-tacrine, 1,7-N-heptylene-bis-9,9'-amino-1,2,3,4-tetrahydro-acridinium dihydrochloride] yielded an inhibition constant (Ki) of 2.9 ± 0.4 pM.
